Measured values taken from patent publication US5324725A, “7-fused 2-(piperazinoalkyl) indole derivatives, intermediates and compositions thereof” (Kali-Chemie Pharma GmbH, priority 1991, dated 1994).
Read-outs that look alike come from different tables or passages of the source.

Tests used:
[1] = tested on: Histamine-induced anaphylactoid reactions; experiment: Inhibition of anaphylactoid cutaneous reaction induced by histamine; type: in vivo, rat (Sprague-Dawley); settings: Rattus norvegicus, 1 h; rats, 2 × 10^-5 mol/kg p.o., one hour before challenge; histamine intradermal
Method: (§1) 1. Determination of the inhibition of passive cutaneous anaphylaxis (P.C.A.) and of the anaphylactoid cutaneous reaction induced by histamine.
(§2) The determination of the inhibition of passive cutaneous anaphylaxis and the anaphylactoid cutaneous reaction induced by histamine was carried out as follows:
To determine the histamine-induced anaphylactoid skin reaction, the animals were injected intradermally in the flank opposite to the antiserum administration with 50 μl of a physiological saline solution containing 0.8 mg/ml of histamine directly before the i.v. injection of the solution containing the ovalbumin and the blue dye.
(§3) On the test days, the test substances were dissolved in distilled water which contained 1% by volume of dimethylformamide and 1% by volume of Tween®20 (polyoxyethylene(20) sorbitan monolaurate). One hour before the challenging ovalbumin administration, each animal received 2×10^-5 mol/kg of test substance administered orally in 0.5 ml of solution. A control group received only the solvent for comparison.
(§4) The oedematous anaphylactic (P.C.A.) and anaphylactoid (histamine-induced) reactions caused by the challenging i.v. ovalbumin injection, which are manifested by oedema formation, swelling and exudation of blue dye, were evaluated 30 minutes after challenge by the i.v. ovalbumin injection. This was done by visual determination of the extent to which the blue dye emerges at the sites of oedema formation. The percentage inhibition of anaphylactic and anaphylactoid reactions caused by the test substances was determined in comparison with the reactions of the control animals not treated with test substance with the aid of comparison scales.
(§5) The results obtained by the above test methods using compounds of the formula I are shown in the following Table A. The example numbers given for the compounds of formula I relate to the following preparation examples.

[2] = tested on: P.A.F.-induced aggregation of platelets from rabbit blood; experiment: Anti-P.A.F. effect in vitro: inhibition of P.A.F.-induced platelet aggregation; type: cell-based, rabbit (New Zealand hybrids); settings: Oryctolagus cuniculus, Platelet, test substance concentration 10^-5 mol/l
From the text: 4. Determination of anti-P.A.F. effect in vitro.
Platelet-activating factor (P.A.F.) is a phospholipid mediator which has several effects. The activation of platelet aggregation leads to the induction of protracted broncho contractions and hyperreactivity of the airways.
The effects of the test substances on platelet aggregation induced by adding P.A.F. to a platelet suspension obtained from rabbit blood was investigated by the method described by Mikashima et al. (Jap. J. Pharmacol. 44 (1987) 387-391).
A suspension of platelets originating from rabbit blood was used which contained 4×10^9 platelets/ml in a modified Tyrode buffer solution adjusted to pH 7.4. Tyrode solution is an aqueous solution containing 136.9 mmol of NaCl, 2.68 mmol of KCl, 2.31 mmol of CaCl2, 1.0 mmol of MgCl2, 11.9 mmol of NaHCO3, 1.45 mmol of NaH2 PO4 and 5.55 mmol of glucose per liter. This solution was modified by adding 1.3 mM/l of CaCl2 and 2.5 g/l of gelatin. The platelets were obtained from 10 ml blood samples from each of three rabbits (New Zealand hybrids, body weight 3-4 kg). For this, the blood samples were treated with ethylenediaminetetraacetic acid and washed by the method of Artley et al. (Brit. J. Hamatol. 19 (1970), 7-17). A platelet-rich plasma was then initially separated by centrifugation (20 minutes at 400×g). The platelets were separated from the plasma by centrifuging again for 15 minutes at 1400×g. After centrifuging, the platelets remaining as a sediment were resuspended in a calcium-free Tyrode buffer solution. 0.4 mmol of lysine acetylsalicylate were then added and after 15 minutes the blood platelets were sedimented again. The sediment was resuspended in the abovementioned modified Tyrode buffer solution, and the number of platelets in the resulting suspension was adjusted to the desired content.
A 40×10^-9 molar P.A.F. solution was used as the reagent. This solution was prepared from a 1.8×10^-3 molar stock solution in chloroform. For this, a 10μl sample of the stock solution was evaporated to dryness and redissolved in 180 μl of the modified Tyrode solution, to which 0.25% of dilapidated bovine serum albumin had been added. 10^-5 molar working solutions were then prepared from this and stored frozen. Samples of these solutions were appropriately diluted for the tests.
To carry out the tests, 50 μl of the platelet solution and 10 μl of a 40×10^-5 molar solution of the compound to be investigated were added to 330 μl of the modified Tyrode buffer solution with stirring (1000 rpm) in an aggregation tube provided with a small magnetic stirrer. This corresponds to a final test substance concentration of 10^-5 mol/l. After a preincubation time of 90seconds, 10 μl of the P.A.F. preparation were added. The aggregation occurring in the aggregation tubes was measured for 4-5 minutes using a computerized aggregometer.
The aggregation occurring in the test tubes containing only platelet suspension was rated as 0%. The aggregation occurring in test tubes containing platelet suspension and P.A.F. preparation was rated as 100%. The aggregation which still occurred in the presence of the test substances (i.e. during inhibition of the P.A.F.-induced platelet aggregation increase) was measured, and the resulting aggregation inhibition is calculated from this in %.

[3] = tested on: Passive cutaneous anaphylaxis (P.C.A.); experiment: Inhibition of passive cutaneous anaphylaxis (P.C.A.); type: in vivo, rat (Sprague-Dawley); settings: Rattus norvegicus, 1 h; rats, 2 × 10^-5 mol/kg p.o., one hour before ovalbumin challenge
Method: as §1
The P.C.A. reaction was carried out according to the methods described by Goose et al. (J.N. Immunology 16 (1969), 749) and by Martin et al (Arch. Pharmacol. 316 (1981), 186}.
The IgE-rich ovalbumin antiserum used in the test was obtained from immunized Brown-Norway rats. For immunization, the rats were given an i.p. injection of a mixture of 100 μg of ovalbumin with a Bordetella pertussis suspension (Vaxicoq®, Manufacturer: Institut Merieux, containing 5×10^9 organisms and 1.25 mg of Al(OH)3). After 20 days, the animals received a further i.p. injection of a solution of 10 μg of ovaIbumin in 0.5 ml of physiological saline solution for reimmunisation. After a further four days, the animals were bled, and the blood was centrifuged The antiserum obtained in this way was stored at -20° C. until use.
as §2
Sprague-Dawley rats having a body weight of 150-180 g were injected intradermally in one flank with 50 μl of a 1:75 dilution of the IgE-rich ovalbumin antiserum in physiological sodium chloride solution for passive sensitization to ovalbumin.
24 hours after sensitization a solution of 8.25 mg/kg of ovalbumin and 26.4 mg/kg of a blue dye (Evans' Blue) was administered i.v. to the rats according to Martin et al. to induce passive cutaneous anaphylaxis. The ovalbumin challenge caused a local anaphylactic reaction at the site at which the antiserum had been injected.
as §3, §4, §5

histamine (H1) receptor = target: T1, histamine (H1) receptor (Cavia porcellus, UniProt P31389); experiment: Antihistamine (H1) effect: inhibition of histamine-induced contractions of isolated guinea-pig ileum in vitro; type: cell-based, guinea-pig (Dunkin Hartley); settings: histamine 5 × 10^-6 mol/l, test substance 10^-6 mol/l
T1 construct: isolated smooth muscle of the guinea-pig ileum; from tissue; host or cells: isolated ileum segments of Dunkin Hartley guinea-pigs
Method: 3. Investigation of the antihistamine (H1) effect based on histamine (H1) receptor antagonism in vitro.
To investigate the histamine (H1) receptor antagonism of the substances, the inhibitory effect thereof on histamine-induced contractions of the smooth musculature of isolated organ was determined in vitro. Isolated strips of organ from the ileum were used. In an organ bath of physiological saline solution, they react to addition of histamine by contracting. Addition of the compounds of the invention decreases this histamine-induced contraction of the smooth musculature of the ileum strips. The extent of decrease of the contraction is an indication of the antihistamine (H1) activity of the compounds. The investigation is carried out analogously to the method originally described by Magnus (Pflugers Arch. 102, 123 (1904)).
Experimental description of the determination of the inhibitory effect on the contraction induced by a 5×10^-6 molar histamine concentration on isolated smooth muscle of the guinea-pig ileum.
For the test, 1.5 cm long segments of the ileum from Dunkin Hartley guinea-pigs having a body weight of 300-500 g were employed. Each strip was placed in an organ bath of 10 ml of Krebs-Henseleit physiological saline solution and attached to a customary apparatus for isotonically measuring changes in length of the ileum strip (automated Celaster measuring apparatus) so that the tissue is under a tension of 1 g. The bath was kept at a pH of 7.4 and aerated with a mixture of 5% CO2 and 95% O2. After an equilibration phase, an isotonic contraction of the tissue was produced by adding histamine in a final concentration of 5×10^-6 mol/l and was washed out again after a contact time of 30 seconds. Only those tissues in which three reproducible contractions were obtained at 10 minute intervals were used in the subsequent test. The test substances were then added in a final concentration of 10^-6 mol/l, and after a contact time of 30 seconds histamine was again added up to a concentration of 5×10^-6 mol/l. The contractions which occurred were measured over the course of 30 seconds. The tissue was then washed several times over a period of 10 minutes. A contraction challenge was then induced again by addition of histamine. The contractions which occurred were again measured over 30 seconds. The difference between the amplitude of the contraction obtained by histamine addition alone and the amplitude of the contraction obtained in the presence of the test substance was determined and calculated as % inhibition.
The inhibitory effects on the contractions induced by histamine 30 seconds after administration of the test substance and on the contractions induced by addition of histamine 10 minutes afterward are given in the table.

T1 sequence (P31389 whole entry): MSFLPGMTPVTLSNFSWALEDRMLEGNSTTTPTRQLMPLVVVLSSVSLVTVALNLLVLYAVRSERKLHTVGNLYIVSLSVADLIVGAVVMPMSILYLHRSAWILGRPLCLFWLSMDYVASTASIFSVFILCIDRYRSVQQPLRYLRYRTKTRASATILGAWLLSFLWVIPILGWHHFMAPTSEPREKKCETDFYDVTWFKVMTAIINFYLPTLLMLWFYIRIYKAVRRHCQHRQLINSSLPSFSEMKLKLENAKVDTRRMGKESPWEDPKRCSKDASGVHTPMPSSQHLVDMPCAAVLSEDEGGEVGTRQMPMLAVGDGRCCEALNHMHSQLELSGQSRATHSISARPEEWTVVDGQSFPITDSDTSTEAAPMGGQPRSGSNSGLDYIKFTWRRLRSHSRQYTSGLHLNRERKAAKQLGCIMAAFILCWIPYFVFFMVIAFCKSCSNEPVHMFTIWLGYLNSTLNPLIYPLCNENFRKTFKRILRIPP

Row | SMILES | inhibition in vivo at 20 µmol/kg [1] [%] | inhibition at 10 µM [2] [%] | inhibition in vivo at 20 µmol/kg [3] [%] | inhibition at 1 µM (histamine (H1) receptor; after 30 sec., read-out: in vitro (H1) receptor antagonism % inhibitory effect on histamine-induced contractions of the Ileum, after 30 sec.) [%] | inhibition at 1 µM (histamine (H1) receptor; after 10 min. (after washing), read-out: in vitro (H1) receptor antagonism % inhibitory effect on histamine-induced contractions of the Ileum, after 10 min.) [%]
1 | Cc1ccnc(N2CCN(CCc3c(-c4ccc(Cl)cc4)n4c5c(cccc35)CCC4)CC2)c1 [Example 46] | 25 | 91 | 35 |  | 
2 | Cc1cccc(N2CCN(CCc3c(C)n4c5c(cccc35)CCC4)CC2)n1 [Example 50] | 50 |  | 60 | 24 | 50
